These results are taken from paper PMC3734253, “A Novel Color Change Mechanism for Breast Cancer Biomarker Detection: Naphthoquinones as Specific Ligands of Human Arylamine N-Acetyltransferase 1” (PLoS ONE, 2013).

Data set [1] can be described thus: Solubility under NMR conditions for active protein. Format: physicochemical. The settings on record: 5% DMSO-d6/95% D2O, for 15N-NMR.
For data set [2], the target named is T1, hNAT2 (Homo sapiens, UniProt P11245).
T1 sequence (P11245 1-290): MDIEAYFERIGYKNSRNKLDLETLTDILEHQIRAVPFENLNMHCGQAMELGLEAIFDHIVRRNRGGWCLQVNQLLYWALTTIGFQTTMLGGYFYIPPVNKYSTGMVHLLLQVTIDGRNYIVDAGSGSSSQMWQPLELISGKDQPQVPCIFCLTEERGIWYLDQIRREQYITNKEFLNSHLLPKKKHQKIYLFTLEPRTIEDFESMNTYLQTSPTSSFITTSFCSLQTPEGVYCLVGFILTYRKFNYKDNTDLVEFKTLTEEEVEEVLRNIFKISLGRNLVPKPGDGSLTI
The data set can be described thus: Visible spectrum of compound in presence of hNAT2. The data set is classed as binding. The settings on record: with hNAT2. Here is the method: (§1) Visible spectra of each compound were recorded with a U-2001 spectrophotometer (Hitachi) using 1 mL plastic cells of 1 cm path-length (FisherBrand) or 50 μL UVettes® (Eppendorf). Concentrations of inhibitors and protein used are given in the appropriate figure legends. All spectra were blank-corrected.

In data set [3] the target is T2, hNAT1 (Homo sapiens, UniProt P18440).
T2 construct: made in house
T2 sequence (P18440 1-290): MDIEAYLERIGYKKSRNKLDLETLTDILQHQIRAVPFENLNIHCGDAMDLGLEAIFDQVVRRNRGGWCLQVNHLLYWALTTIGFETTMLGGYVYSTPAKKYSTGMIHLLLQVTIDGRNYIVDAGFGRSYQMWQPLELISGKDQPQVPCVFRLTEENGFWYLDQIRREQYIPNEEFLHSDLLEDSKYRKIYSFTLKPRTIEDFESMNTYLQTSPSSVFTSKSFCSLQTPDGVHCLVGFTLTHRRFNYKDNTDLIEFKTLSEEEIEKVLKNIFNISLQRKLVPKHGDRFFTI
Put plainly: Visible spectrum of compound in presence of hNAT1. The conditions noted are these: with hNAT1, 20 mM Tris.HCl pH 8. The data set is classed as binding. Here is the method:
as §1
(§2) 15 μM compound 4 was prepared using different conditions: 20 mM aq Tris.HCl, pH 8, 5% DMSO (v/v); 80 mM aq NaOH, pH 13.75, 5% DMSO (v/v); with hNAT1 (30 μM) in 20 mM aq Tris.HCl, pH 8, 5% DMSO (v/v); with mNat2 (30 μM) 20 mM aq Tris.HCl, pH 8, 5% DMSO (v/v). Wavelength scans from 800 to 350 nm were recorded against the respective blanks containing no compound 4.
(§3) 15 μM compound 5 was prepared using different conditions: 20 mM aq Tris.HCl, pH 8, 5% DMSO (v/v); 80 mM aq NaOH, pH 13.75, 5% DMSO (v/v); with hNAT1 (30 μM) in 20 mM aq Tris.HCl, pH 8, 5% DMSO (v/v); with mNat2 (30 μM) 20 mM aq Tris.HCl, pH 8, 5% DMSO (v/v). Wavelength scans from 800 to 350 nm were recorded against the respective blanks containing no compound 5.

Data set [4] deals with T3, mNat1 (Mus musculus, UniProt P50294).
T3 construct: hexa-histidine tag (cleaved yes); made in house; host or cells: E. coli Rosetta(DE3)pLysS
T3 sequence (P50294 1-290): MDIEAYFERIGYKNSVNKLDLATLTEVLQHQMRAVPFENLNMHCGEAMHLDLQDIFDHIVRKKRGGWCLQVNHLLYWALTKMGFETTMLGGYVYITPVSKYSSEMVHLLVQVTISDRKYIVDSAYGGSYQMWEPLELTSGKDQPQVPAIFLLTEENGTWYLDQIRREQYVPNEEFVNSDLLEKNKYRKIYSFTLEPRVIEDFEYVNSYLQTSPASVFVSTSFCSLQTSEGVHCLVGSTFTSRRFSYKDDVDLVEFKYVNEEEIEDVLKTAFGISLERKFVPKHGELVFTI
Put plainly: AcCoA hydrolysis assay, inhibition of mNat1. The conditions noted are these: enzyme mNat1, read-out: % Inhibition at 30 μM of 1. Format: biochemical. Here is the method: (§4) NAT activity was determined as previously described,[23]; a full procedure is outlined in the (File S1).
(§5) NAT activity was determined by AcCoA hydrolysis assays. The NAT isoform (100 ng) was pre-incubated with para-amino benzoic acid (500 μM) in the assay buffer (5% DMSO/95% 20mM aq Tris.HCl, pH 8.0) for 5 min. at 37 °C in a 96-well plate (Corning). Pre-warmed AcCoA (400 μM, 37 °C) in assay buffer was added to start the reaction (final volume of 100 μL), which was allowed to proceed at 37 °C. Simultaneous quenching and color development was achieved by addition of 25 μL DTNB solution (5 mM DTNB in 100 mM aq Tris.HCl, 6.4 M guanidine.HCl, pH 7.5). The absorbance was immediately read at 405 nm using a plate reader (Tecan Sunrise). The rate of reaction was determined by reference to a standard curve and controls with buffer alone were carried out. For detection of inhibition, the inhibitors tested were dissolved in DMSO and the final percentage of DMSO in the assay was 5% (v/v). […] A dose-response function was used as a model of regression for the data and the curves were estimated by the method of the least squares analysis.

Data set [5] concerns the target T3, mNat1. The data set can be described thus: Visible spectrum of compound in presence of mNat1. Format: binding. The settings on record: with mNat1. Here is the method: as §1
The target in data set [6] is T1, hNAT2. The data set can be described thus: AcCoA hydrolysis assay, inhibition of hNAT2. The data set is classed as biochemical. The conditions noted are these: for enzyme activity retained: hNAT2, inhibitor concentration 30 µM. Here is the method:
as §4, §5

Data set [7] deals with T4, mNat2 (Mus musculus, UniProt P50295).
T4 construct: hexa-histidine tag (cleaved yes); made in house; host or cells: E. coli Rosetta(DE3)pLysS
T4 sequence (P50295 1-290): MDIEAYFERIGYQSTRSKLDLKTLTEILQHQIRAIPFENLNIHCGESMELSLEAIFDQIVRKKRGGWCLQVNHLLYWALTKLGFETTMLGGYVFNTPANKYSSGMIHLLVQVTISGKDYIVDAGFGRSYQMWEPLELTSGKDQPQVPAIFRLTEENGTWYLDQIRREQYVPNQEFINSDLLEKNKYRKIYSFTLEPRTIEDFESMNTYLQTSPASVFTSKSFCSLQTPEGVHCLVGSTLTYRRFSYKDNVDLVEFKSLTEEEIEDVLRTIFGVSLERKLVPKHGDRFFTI
The data set can be described thus: AcCoA hydrolysis assay, inhibition of mNat2 (wild type). The data set is classed as biochemical. The settings on record: for IC50: mNat2_WT, pABA 500 μM, AcCoA 400 μM, pH 8.0, 5% DMSO.

Data set [8] can be described thus: Acid-base (pH) titration by visible spectra. The data set is classed as physicochemical. The settings on record: panel of buffered solutions at diverse pHs with 5% DMSO; 5% DMSO/95% H2O. Here is the method:
5 μL of 1 in DMSO (final concentration 0.1 mM) was added to 95 μL of a panel of solutions buffered at diverse pHs in a flat-bottomed 96-well plate (Corning). Visible spectra of the samples were recorded from 800 to 350 nm on the FLUOstar Omega plate reader (BMG Labtech), then the λmax were determined for all spectra and plotted against pH. A sigmoidal titration curve was fitted using GraphPad®.

The target of data set [9] is T4, mNat2. Put plainly: Visible spectrum of compound in presence of mNat2. Format: binding. The conditions noted are these: with mNat2, 20 mM Tris.HCl pH 8. Here is the method: as §1, §2, §3
Data set [10] deals with T5, hNAT1 (human arylamine N-acetyltransferase 1) (Homo sapiens, UniProt P18440).
T5 construct: made in house
T5 sequence (P18440 1-290): T2 sequence (P18440 1-290)
Put plainly: AcCoA hydrolysis assay, inhibition of hNAT1. Format: biochemical. The conditions noted are these: for IC50: pABA 500 μM, AcCoA 400 μM, pH 8.0, 5% DMSO. Here is the method: as §4, §5

For `Cc1cc(C)cc(NC2=C([15NH]S(=O)(=O)c3ccccc3)C(=O)c3ccccc3C2=O)c1` [compound 2, N-(3-(3’’,5’’-Dimethylphenylamino)-1,4-dioxo-1,4-dihydronaphthalen-2-yl)^15N-benzenesulfonamide], in data set [1], the solubility result is listed as “insufficiently soluble”.
By inhibition is commonly meant the change of the read-out against control, counted positive when it falls. Usually IC50 stands for the point on the concentration scale where inhibition reaches its midpoint. Higher therefore signals weaker potency. Take `Cc1cc(C)cc(NC2=C(NS(=O)(=O)c3ccccc3)C(=O)c3ccccc3C2=O)c1` [compound 1, N-(3-(3’’,5’’-Dimethylphenylamino)-1,4-dioxo-1,4-dihydronaphthalen-2-yl)benzenesulfonamide]: the “λmax in presence of hNAT2” value in data set [2] is given as 498 nm. In addition, in [3], the “λmax in presence of hNAT1” value was determined as 585 nm. In addition, the inhibition at 30 µM in data set [4] is 37.6 ± 1.6%; in data set [6] (30 μM, enzyme hNAT2, read-out: % Inhibition at 30 μM of 1), 10.6 ± 2%; in data set [7] (30 μM, enzyme mNat2, read-out: % Inhibition at 30 μM of 1) it was 92.4 ± 4.4%; in data set [10] (30 μM, enzyme hNAT1) it was 93.3 ± 0.9%. Besides, the “λmax in presence of mNat1” value in [5] worked out at 498 nm. Also, the Ki in data set [7] (competitive towards pABA (25-250 µM), AcCoA 400 µM, 9 ng pure recombinant mNat2, Dixon plot, read-out: Ki (app.)) came out at 420 nM. Moreover, the IC50 in data set [7] was 1.9 µM; in [10], 5.3 µM. This compound also displayed a pKa in [8] of approximately 9.2. Further, in data set [9], the “λmax in presence of mNat2” value is listed as 625 nm.
Take `Cc1cc(C)cc(NC2=C(OS(=O)(=O)c3ccccc3)C(=O)c3ccccc3C2=O)c1` [compound 5, 3-((3’’,5’’-Dimethylphenyl)amino)-1,4-dioxo-1,4-dihydronaphthalen-2-ylbenzenesulfonate]: in data set [3], the “λmax in presence of hNAT1” value is recorded as 492 nm. The values for the IC50 in [7] and in [10] were more than 150 µM and 93 µM, respectively. The “λmax in presence of mNat2” value in [9] is 492 nm.
Consider `Cc1cc(C)cc(NC2=C(N(C)S(=O)(=O)c3ccccc3)C(=O)c3ccccc3C2=O)c1` [compound 3, N-(3-(3’’,5’’-Dimethylphenylamino)-1,4-dioxo-1,4-dihydronaphthalen-2-yl)-N-methylbenzenesulfonamide], for which, in data set [3], the “λmax in presence of hNAT1” value came to 476 nm. The enzyme activity retained entry in data set [6] was “more than 90%”. In [9], the “λmax in presence of mNat2” value turned out to be 490 nm.
The melting point is the temperature of the solid-liquid transition. `COS(=O)(=NC1=C(Nc2cc(C)cc(C)c2)C(=O)c2ccccc2C1=O)c1ccccc1` (stereo not shown) [compound 4, Methyl-N-3-(3’’,5’’-dimethylphenylamino)-1,4-dioxo-1,4-dihydronaphthalen-2-ylbenzenesulfonimidate] yielded a melting point of 71 to 74 °C. For the same compound, in [6], the enzyme activity retained entry was “more than 90%”. This compound also registered an IC50 in data set [7] of 14.6 µM. The “λmax in presence of mNat2” value in data set [9] is reported as 548 nm. Moreover, the midpoint of inhibition in data set [10], the IC50, lay at 3.6 µM.
